Test results as given in publication PMC9519446, “Discovery of an Orally Active Benzoxaborole Prodrug Effective in the Treatment of Chagas Disease in Non-human Primates” (Nature microbiology, 2022).
Where “and” joins values, the source holds several entries; their conditions need not be identical. Equal entries are not always repeated. Where two headings read alike, the source gives them in different places.

Legend:
[1] = test system: Luciferase expressing T. cruzi (Colombiana strain); assay: Low dose short treatment (whole body bioluminescence); assay type: in vivo, Hairless mice (SKH-1)
Description: Bioluminiscence signal of the whole body was measure after D-luciferin injection in a Lumina II IVIS in vivo imager equipped with the Living Imaging 4.0 software (PerkinElmer).

NHP bodyweights = assay type: in vivo, rhesus macaques (Macaca mulatta); conditions: individual treated macaques
[2] = NHP clinical observation, physical exams and reproductive follow-up
Description: Under light-anesthesia/sedation, peripheral blood samples were collected from each animal prior to treatment and at 7 time points following. Blood analysis (CBC and serum chemistry assays) and physical exams to evaluate the health of the study animals were performed on each animal prior to the beginning of the study and also at three time points during the treatment protocol (see Supplementary data).

[3] = Pharmacokinetic (PK) analysis in NHP; assay type: in vivo, rhesus macaques (Macaca mulatta); conditions: 30 mg/kg dose
Description: Mid- and end-regimen PK assessments were also performed. […] Only 1 blood sample was collected at a single time point from each of the 18 animals. […] The plasma samples were provided to Pharmout Labs (Fremont, California) for analysis using LC-MS/MS. […] For calculation of PK parameters, the Cmax (maximum concentrations) and tmax (time to maximum concentrations) were determined by visual inspection of the plasma concentration vs. time curves from the pre-regimen and end-regimen periods. PK calculation was not performed for the mid-regimen PK samples since only 2 time points were collected. The AUC values for the pre- and end-regimen were calculated using the linear-trapezoidal rule with the following equation: AUC(t1-t2)=[(Ct2+Ct1)x(t2-t1)]/2 where t1 and t2 are consecutive sampling time points, AUC(t1-t2) is the fractional area-under-the-curve over time intervals t1 and t2, Ct2 is the concentration at time t2, Ct1 is the concentration at time t1. […] AUC0-∞ was estimated using the following equation: AUC0-∞=[…] Where AUC0-∞ was AUC from zero to infinity, AUClast was the AUC from zero to the last measurable time point, Clast was the concentration at the last measurable time point. AUC0-∞ and t1/2 were not estimated when the terminal elimination phase was not defined. Plasma clearance (CLp) after the IV dose was estimated using the following: CLp = Dose/AUC0-∞.

[4] = Plasma protein binding (cyno); assay type: in vitro ADME
[5] = test system: wild-type and peptidase knockout T. cruzi epimastigotes and amastigotes; assay: LC-MS/MS analysis of intracellular AN15368 and AN14667 (uptake and conversion); assay type: cell-based, Trypanosoma cruzi; conditions: epimastigotes 10 uM, amastigotes 50 nM; WT vs CBP KO
Description: The cells were then pelleted and resuspended in 100 μL of PBS. The cell suspension was mixed with 200 μl of acetonitrile and centrifuged at 735 gfor 10 minutes at room temperature. After extraction, the supernatant was further diluted with methanol:water 30:70 (v/v) containing 0.4 nM internal standard (IS) AN14817 to a concentration within the calibration range. Each sample was diluted in triplicate to provide technical replicates and the diluted sample (10 μL) was injected for subsequent LC-MS/MS analysis.
LC-MS/MS analysis was performed on a Waters ACQUITY I-Class UPLC system coupled to a Xevo TQ-S triple quadrupole mass spectrometer. An ACQUITY UPLC BEH C18 column (130 Å, 1.7 μm, 2.1 mm x 50 mm) was used for chromatographic separation, and the column temperature was 40 °C. The mobile phase consisted of water (A) and methanol (B), both containing 0.1% (v/v) formic acid. The following gradient elution was performed at a flow rate of 0.4 mL/min: 0 – 0.5 min, 30% B; 0.5 – 3 min, 30 – 95% B; 3 – 4 min, 95% B; 4 – 4.1 min, 95 – 30% B; and 4.1 – 5 min, 30% B. The MS ionization was carried out in the positive electrospray ionization (ESI) mode with following conditions: capillary voltage = 1.50 kV; desolvation temperature = 500 °C; desolvation gas flow = 1000 L/h; and nebulizer gas pressure = 7.0 bar. […] Data were processed using TargetLynx v4.1 software (Waters).

[6] = High dose 7-day toxicology study with exposure
[7] = test system: T. cruzi extracellular amastigotes; assay: Extracellular amastigote assay (ATPlite luminescence, 48 hours); assay type: cell-based; conditions: Trypanosoma cruzi
Description: The in vitro anti-T. cruzi amastiogote activity assay was performed and optimized based on the protocol described previously. The change in tdTomato fluorescence intensity was determined as a measurement of growth over 72 hours of culture. For assaying drug effects on extracellular amastigotes, trypomastigotes were collected from infected Vero cell cultures and converted in acidic media as previously described. Amastigotes (50,000/well) were incubated with 2-fold serial dilutions of compounds for 48 hours. The ATP production was used as an indication of growth in this case, and was measured by ATPlite Luminescence ATP Detection Assay System (PerkinElmer). Both fluorescence and luminescence were read using a BioTek Synergy Hybrid Multi-Mode reader equipped with the software Gene5 v 2.0 (BioTek). The dose-response curve was generated by […] analysis with GraphPad Prism v9.4.0 (GraphPad Software).

[8] = test system: tdTomato expressing T. cruzi (CL strain); assay: Rapid in vivo assay: footpad infection, single oral dose, fluorescence imaging 2 and 4 dpi (proliferation index);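 as to Parasite proliferation index of footpads infected with tdTomato-expressing T. cruzi: single oral dose of 50 mg/kg given at 2 dpi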; parameters: species or system C57BL/6 mice; conditions: for Fluorescence intensity of the feet of mice infected with tdTomato-expressing T. cruzi: individual feet
Description: Fluorescent intensity of the feet was measured at 2 dpi before compound administration and at 4 dpi in the Maestro in vivo imaging system equipped with the software Maestro 2.1.0 (CRi) as previously described. The proliferation index was estimated as PI=[(T4d – T2d)/(mUnt4d-mUnt2d)]*100; where T4d and T2d are the fluorescence intensity of the feet of the treated animals at days 4 and 2 post-infection respectively; mUnt4d and mUnt2d are the average fluorescence intensity of the feet of the untreated animals at 4 and 2 dpi respectively.

Compound: Cc1c(C(=O)N[C@H](C(=O)OCC2CCOCC2)C(C)C)ccc2c1B(O)OC2 [AN15368]
- Bioluminiscence signals of mice ([1]; AN15368_2.5mg, 19 dpi): 29400000 and 22400000 and 35610000 and 24370000
- Bioluminiscence signals of mice ([1]; AN15368_5mg, 15 dpi): 8923000 and 11990000
- Bioluminiscence signals of mice ([1]; AN15368_5mg, 19 dpi): 2040000
- bodyweight at end of study (remark) (NHP bodyweights): Weighed less at end of study
- Bodyweights (NHP bodyweights; weighing 2017-09-11/12): 6.37 kg and 8.90 kg and 7.40 kg and 5.20 kg and 6.40 kg and 6.70 kg and 7.70 kg and 7.60 kg and 7.10 kg and 6.30 kg and 7.20 kg and 7.30 kg
- Bodyweights (NHP bodyweights; weighing 2017-10-18/19): 7.00 kg and 9.40 kg and 7.50 kg and 5.30 kg and 6.60 kg and 7.10 kg and 8.00 kg and 7.70 kg and 7.20 kg and 6.40 kg
- Bodyweights (NHP bodyweights; weighing 2017-11-16): 7.30 kg and 9.70 kg and 7.70 kg and 5.50 kg and 6.90 kg and 8.30 kg and 7.00 kg and 6.70 kg and 7.90 kg
- Bodyweights (NHP bodyweights; weighing 2017-12-05/06): 7.50 kg and 9.70 kg and 7.80 kg and 5.80 kg and 6.90 kg and 7.10 kg and 8.10 kg and 7.00 kg and 8.40 kg
- Bodyweights (NHP bodyweights; weighing 2017-12-19/20): 7.50 kg and 9.70 kg and 7.60 kg and 5.50 kg and 6.50 kg and 6.70 kg and 8.10 kg and 7.40 kg and 6.60 kg and 7.90 kg and 7.70 kg
- Bodyweights (NHP bodyweights; weighing 2018-01-08/09): 7.60 kg and 9.80 kg and 7.80 kg and 5.40 kg and 6.60 kg and 6.80 kg and 8.20 kg and 6.90 kg and 7.00 kg
- Bodyweights (NHP bodyweights; weighing 2018-01-22/23): 7.60 kg and 9.95 kg and 7.90 kg and 5.60 kg and 6.80 kg and 7.15 kg and 8.25 kg and 7.65 kg and 6.85 kg and 8.10 kg and 8.20 kg
- Bodyweights (NHP bodyweights; weighing 2018-02-26/27): 8.05 kg and 10.20 kg and 7.90 kg and 5.70 kg and 6.95 kg and 7.25 kg and 8.45 kg and 7.80 kg and 7.30 kg and 8.35 kg and 8.25 kg
- Bodyweights (NHP bodyweights; weighing 2018-03-26/27): 8.00 kg and 10.15 kg and 5.75 kg and 7.00 kg and 7.55 kg and 8.65 kg and 7.85 kg and 6.95 kg and 7.50 kg and 8.20 kg and 8.75 kg
- Bodyweights (NHP bodyweights; weighing 2018-04-09/10/11): 7.95 kg and 10.20 kg and 8.10 kg and 5.90 kg and 6.85 kg and 7.15 kg and 8.70 kg
- adverse events ([2]; 19 treated macaques, 60 day treatment period): No adverse events
- healthy and T. cruzi-seronegative infants produced ([2]; female, rhesus monkey, in vivo, 2 years): 13
- exposure [3]: 3.5 to 4.7 µg·h/kg
- Funbound (cyno) [4]: 21%
- accumulation and conversion to cleaved product AN14667 [5]: conversion to the cleaved product in wild-type T. cruzi epimastigotes and amastigotes but not in the KO line
- dose proportionality of exposure ([6]; 7-day toxicology studies / rats): good dose proportional exposure
- NOAEL dose translated by allometric scaling ([6]; humans): 19.4 mg/kg
- NOAEL dose translated by allometric scaling ([6]; monkeys): 60.5 mg/kg
- AUC(0-t) ([6]; rat, in vivo, 120 mg/kg/day, Total plasma exposure (AUC0-24 h), rats, 120 mg/kg/day (NOAEL dose)): 30 µg·h/mL
- AUC ([6]; rat, in vivo, 600 mg/kg): 256 µg·h/mL
- NOAEL at 7 days ([6]; rat, in vivo, oral): 120 mg/kg
- microscopic findings ([6]; rats): observed microscopically in liver (dose dependent), kidney
- effects on hematology and clinical chemistry ([6]; rats, 120 mg/kg/day or lower): none
- effects on hematology and clinical chemistry ([6]; rats, 150 mg/kg): modest effects
- drug accumulation ([6]; rats, between the first and seventh days of the study): no evidence of drug accumulation

Compound: Cc1c(C(=O)NC(C(=O)OCc2ccc(F)c(F)c2)C(C)C)ccc2c1B(O)OC2 (stereo not shown) [AN14353]
- IC50 ([7]; WT extracellular amastigotes, Fig. 2c, read-out: WT IC50): 500 pM
- IC50 ([7]; extracellular amastigotes, Fig. 2a, read-out: Extracellular IC50): 100 pM
- Fluorescence intensity of the feet of mice infected with tdTomato-expressing T. cruzi ([8]; 0.8 mg/kg): 1665.8 and 1203.3 and 1103.9 and 2856.3 and 2240.9 and 2906.1 and 796.9 and 2912.6 and 793.9 and 2840.0
- Fluorescence intensity of the feet of mice infected with tdTomato-expressing T. cruzi ([8]; 3.2 mg/kg): 1183.1 and 248.0 and 552.8 and 1244.2 and 574.1 and 807.8 and 439.5 and 1642.2 and 2070.5 and 1949.8
- Fluorescence intensity of the feet of mice infected with tdTomato-expressing T. cruzi ([8]; 12.5 mg/kg): 556.7 and -13.5 and -118.4 and 985.8 and 248.2 and 312.2 and -170.7 and 977.4 and 456.5 and 1102.8
- Fluorescence intensity of the feet of mice infected with tdTomato-expressing T. cruzi ([8]; 25 mg/kg): 916.6 and 1396.9 and 669.0 and 929.6 and 109.0 and 109.7 and 3.9 and 55.6 and 1126.1 and 448.9
- Fluorescence intensity of the feet of mice infected with tdTomato-expressing T. cruzi ([8]; 40 mg/kg): 248.7 and 316.0 and 101.3 and 60.4 and 606.3 and -64.8 and 95.6 and 476.3 and 738.5 and 600.3
- Parasite proliferation index of footpads infected with tdTomato-expressing T. cruzi ([8]; Fig. 3a, individual footpads): 1.9 and 17.1 and 45.9 and 24.7 and 19.1 and 29.9 and -18.9 and -3.0 and 31.4 and 4.1
